Test results as given in patent US20020059032A1, “Rational selection of putative peptides from identified nucleotide or peptide sequences” (priority 1999, published 2002).
Where a SMILES comes first, the peptide text is derived from it.

Target: guinea pig brain membranes
Assay: Binding test with guinea pig brain membranes
Settings: tested on guinea pig brain membranes; read-out: IC50 = 100 μM

| Structure (SMILES) | IC50 [nM] |
| --- | --- |
| CSCC[C@H](NC(=O)[C@H](C)NC(=O)[C@@H](NC(=O)[C@@H](N)CCC(=O)O)C(C)C)C(=O)N[C@@H](CC(=O)O)C(=O)N[C@@H](CC(=O)O)C(=O)N[C@@H](Cc1c[nH]cn1)C(=O)N[C@@H](CCCCN)C(=O)N[C@@H](CC(C)C)C(=O)N[C@@H](CO)C(=O)N[C@@H](CC(C)C)C(=O)N[C@@H](CC(=O)O)C(=O)N[C@@H](CCC(=O)O)C(=O)N[C@@H](CC(C)C)C(N)=O [Example 58, H-EVAMDDHKLSLDEL-NH2] (H-EVAMDDHKLSLDEL-NH2) | 860 |
| CC[C@H](C)[C@H](NC(=O)[C@H](CCCCN)NC(=O)[C@H](Cc1ccccc1)NC(=O)[C@H](CCC(N)=O)NC(=O)[C@H](C)NC(=O)[C@H](Cc1c[nH]c2ccccc12)NC(=O)[C@@H](N)CCC(N)=O)C(=O)N[C@@H](CCC(N)=O)C(=O)N[C@@H](Cc1c[nH]c2ccccc12)C(=O)N[C@@H](CC(N)=O)C(=O)N[C@@H](CCC(N)=O)C(=O)N[C@@H](CCCNC(=N)N)C(=O)N[C@@H](Cc1c[nH]c2ccccc12)C(N)=O [Example 61, H-QWAQFKIQWNQRW-NH2] (H-QWAQFKIQWNQRW-NH2) | 1110 |
| CSCC[C@H](NC(=O)[C@H](CC(C)C)NC(=O)CNC(=O)[C@H](Cc1ccccc1)NC(=O)[C@H](Cc1ccccc1)NC(=O)[C@H](CCC(N)=O)NC(=O)[C@H](CCC(N)=O)NC(=O)[C@@H]1CCCN1C(=O)[C@H](CCCCN)NC(=O)[C@@H]1CCCN1C(=O)[C@@H](N)Cc1ccc(O)cc1)C(N)=O [Example 64, H-YPKPQQFFGLM-NH2] (H-YPKPQQFFGLM-NH2) | 1 |
| CC(C)C[C@H](NC(=O)[C@H](CCC(N)=O)NC(=O)[C@H](C)NC(=O)[C@@H](NC(=O)[C@H](CCC(=O)O)NC(=O)[C@H](CCC(=O)O)NC(=O)[C@H](CCCCN)NC(=O)[C@@H]1CCCN1C(=O)[C@@H]1CCCN1C(=O)[C@@H](N)CCC(=O)O)[C@@H](C)O)C(=O)N[C@H](C(=O)NCC(=O)N1CCC[C@H]1C(=O)N[C@@H](CCC(=O)O)C(=O)N[C@@H](C)C(N)=O)[C@@H](C)O [Example 65, H-EPPKEETAQLTGPEA-NH2] (H-EPPKEETAQLTGPEA-NH2) | 4000 |
| CSCC[C@H](N)C(=O)NCC(=O)N[C@@H](CCCCN)C(=O)N[C@@H](Cc1c[nH]c2ccccc12)C(=O)N[C@@H](Cc1c[nH]cn1)C(=O)N[C@H](C(=O)NCC(N)=O)C(C)C [Example 67, H-MGKWHVG-NH2] (H-MGKWHVG-NH2) | 160 |

Further compounds by falling IC50, results first:

| IC50 [nM] | Structure (SMILES) |
| --- | --- |
| 670 | CC[C@H](C)[C@H](NC(=O)CNC(=O)[C@H](CCCCN)NC(=O)[C@H](CO)NC(=O)[C@H](Cc1ccc(O)cc1)NC(=O)[C@@H](N)CC(=O)O)C(=O)N[C@H](C(=O)N[C@H](C(=O)N[C@H](C(=O)N[C@@H](CCCCN)C(=O)N[C@@H](CC(N)=O)C(=O)N[C@@H](CC(=O)O)C(N)=O)[C@@H](C)O)C(C)C)[C@@H](C)O [Example 62, H-DYSKGITVTKND-NH2] (H-DYSKGITVTKND-NH2) |
| 410 | CC(C)[C@H](NC(=O)[C@H](C)NC(=O)[C@H](CCCCN)NC(=O)[C@H](C)NC(=O)[C@@H]1CCCN1C(=O)[C@@H](NC(=O)[C@@H](NC(=O)[C@@H](N)[C@@H](C)O)C(C)C)[C@@H](C)O)C(=O)N[C@H](C(=O)N[C@H](C(=O)N1CCC[C@H]1C(N)=O)[C@@H](C)O)[C@@H](C)O [Example 59, H-TVTPAKAVTTP-NH2] (H-TVTPAKAVTTP-NH2) |
| 20 | CC[C@H](C)[C@H](NC(=O)[C@@H](N)C(C)C)C(=O)N[C@@H](CCC(N)=O)C(=O)N[C@@H](Cc1ccc(O)cc1)C(=O)N[C@@H](CC(C)C)C(=O)N[C@@H](C)C(=O)N[C@@H](Cc1c[nH]cn1)C(=O)N[C@H](C(=O)N[C@@H](C)C(=O)N[C@@H](CO)C(=O)N[C@@H](CO)C(=O)N[C@@H](Cc1c[nH]cn1)C(=O)N[C@@H](CCCCN)C(N)=O)C(C)C [Example 63, H-VIQYLAHVASSHK-NH2] (H-VIQYLAHVASSHK-NH2) |
| 2 | CSCC[C@H](NC(=O)[C@@H](N)Cc1ccc(O)cc1)C(=O)N[C@@H](Cc1c[nH]cn1)C(=O)NCC(=O)N[C@@H](Cc1c[nH]cn1)C(=O)N[C@@H](CCCNC(=N)N)C(=O)N[C@@H](C)C(=O)N1CCC[C@H]1C(=O)NCC(N)=O [Example 66, H-YMHGHRAPG-NH2] (H-YMHGHRAPG-NH2) |
